Converted amounts (≈) assume the structure as drawn. The source made the active and inactive calls. No cut-off for these calls is given here.
How the values were obtained:
Botrytis cinerea [1] = test: Antifungal activity against Botryotinia fuckeliana ITEM-966 after 72 hr by broth dilution method; format: functional; details: ITEM-966, 72 h
Botrytis cinerea [2] = test: Antifungal activity against Botryotinia fuckeliana ITEM-966 after 48 hr by broth dilution method; format: functional; details: ITEM-966, 48 h
Botrytis cinerea [3] = test: Antifungal activity against Botryotinia fuckeliana ITEM-966 after 24 hr by broth dilution method; format: functional; details: ITEM-966, 24 h
[4] = tested on: Meyerozyma guilliermondii; test: Antifungal activity against Meyerozyma guilliermondii assessed as growth inhibition at 50 ug/ml after 24 to 72 hr by broth dilution method; format: functional, organism-based
Rhodotorula glutinis = test: Antifungal activity against Rhodotorula glutinis assessed as growth inhibition at 50 ug/ml after 24 to 72 hr by broth dilution method; format: functional, organism-based
[5] = tested on: Penicillium brevicompactum; test: Antifungal activity against Penicillium brevicompactum Dierckx ITEM-449 after 48 hr by broth dilution method; format: functional; details: Dierckx ITEM-449, 48 h
Aspergillus parasiticus [6] = test: Antifungal activity against Aspergillus parasiticus Speare ITEM-11 after 72 hr by broth dilution method; format: functional; details: Speare ITEM-11, 72 h
Aspergillus parasiticus [7] = test: Antifungal activity against Aspergillus parasiticus Speare ITEM-11 after 48 hr by broth dilution method; format: functional; details: Speare ITEM-11, 48 h
[8] = tested on: Penicillium brevicompactum; test: Antifungal activity against Penicillium brevicompactum Dierckx ITEM-449 after 24 hr by broth dilution method; format: functional; details: Dierckx ITEM-449, 24 h
[9] = tested on: Penicillium brevicompactum; test: Antifungal activity against Penicillium brevicompactum Dierckx ITEM-449 after 72 hr by broth dilution method; format: functional; details: Dierckx ITEM-449, 72 h
Aspergillus parasiticus [10] = test: Antifungal activity against Aspergillus parasiticus Speare ITEM-11 after 24 hr by broth dilution method; format: functional; details: Speare ITEM-11, 24 h
[11] = Toxicity against Artemia salina (brine shrimp) larvae after 24 hr; format: organism-based; details: in vivo

Question: Which MIC (Botrytis cinerea [1]) does the source give for CCCCCCC(C)C/C(C)=C\C(CO)CC(C)CCC(O)C(C)(C)c1cc(O)c([C@@H]2O[C@H](CO)C[C@H](O)[C@H]2O)c(=O)o1 (stereo partly specified) here?
Answer: 50 µg/mL (≈ 81.9 µM)

Question: What about the MIC (Botrytis cinerea [2]) of the same compound?
Answer: 50 µg/mL (≈ 81.9 µM)

Question: And the MIC (Botrytis cinerea [3])?
Answer: 50 µg/mL (≈ 81.9 µM)

Question: What about the “growth inhibition (GI)” value [4] of the same compound?
Answer: inactive

Question: And the “growth inhibition (GI)” value (Rhodotorula glutinis)?
Answer: inactive

Question: For Nc1c(Cl)cc([N+](=O)[O-])cc1Cl [ALLISAN], which MIC (Botrytis cinerea [1]) is on record?
Answer: 6.25 µg/mL (≈ 30.2 µM)

Question: And the MIC (Botrytis cinerea [2])?
Answer: 6.25 µg/mL (≈ 30.2 µM)

Question: What about the MIC [5] of the same compound?
Answer: 25 µg/mL (≈ 121 µM)

Question: What about the MIC (Botrytis cinerea [3]) of the same compound?
Answer: 3.12 µg/mL (≈ 15.1 µM)

Question: What about the MIC (Aspergillus parasiticus [6]) of the same compound?
Answer: > 25 µg/mL

Question: And the MIC (Aspergillus parasiticus [7])?
Answer: > 25 µg/mL

Question: What about the MIC [8] of the same compound?
Answer: 12.5 µg/mL (≈ 60.4 µM)

Question: What about the MIC [9] of the same compound?
Answer: > 25 µg/mL

Question: What about the MIC (Aspergillus parasiticus [10]) of the same compound?
Answer: > 25 µg/mL

Question: Which MIC (Botrytis cinerea [1]) does the source give for CCCCNC(=O)n1c(NC(=O)OC)nc2ccccc21 [BENOMYL] here?
Answer: 0.19 µg/mL (≈ 0.654 µM)

Question: And the MIC (Botrytis cinerea [2])?
Answer: 0.19 µg/mL (≈ 0.654 µM)

Question: What about the MIC [5] of the same compound?
Answer: > 25 µg/mL

Question: And the MIC (Botrytis cinerea [3])?
Answer: 0.19 µg/mL (≈ 0.654 µM)

Question: And the MIC (Aspergillus parasiticus [6])?
Answer: > 25 µg/mL

Question: And the MIC (Aspergillus parasiticus [7])?
Answer: > 25 µg/mL

Question: And the MIC [8]?
Answer: > 25 µg/mL

Question: And the MIC [9]?
Answer: > 25 µg/mL

Question: And the MIC (Aspergillus parasiticus [10])?
Answer: > 25 µg/mL

Question: With CCCCCCC(C)C/C(C)=C\C(/C=C(C)/C=C/C(O)C(C)(C)c1cc(O)c(CCO)c(=O)o1)CO (stereo unspecified) as the compound, how does the “growth inhibition (GI)” value [4] read?
Answer: inactive

Question: And the “growth inhibition (GI)” value (Rhodotorula glutinis)?
Answer: inactive

Question: For CCCCCCC(C)C/C(C)=C\C(/C=C(C)/C=C/C(O)C(C)(C)c1cc(O)c([C@@H]2O[C@H](CO)C[C@H](O)[C@H]2O)c(=O)o1)CO (stereo partly specified) [Fusapyrone], which MIC (Botrytis cinerea [1]) is on record?
Answer: 6.25 µg/mL (≈ 10.3 µM)

Question: And the MIC (Botrytis cinerea [2])?
Answer: 3.12 µg/mL (≈ 5.14 µM)

Question: And the MIC [5]?
Answer: 3.12 µg/mL (≈ 5.14 µM)

Question: And the MIC (Botrytis cinerea [3])?
Answer: 1.56 µg/mL (≈ 2.57 µM)

Question: What about the MIC (Aspergillus parasiticus [6]) of the same compound?
Answer: 12.5 µg/mL (≈ 20.6 µM)

Question: What about the MIC (Aspergillus parasiticus [7]) of the same compound?
Answer: 6.25 µg/mL (≈ 10.3 µM)

Question: What about the “growth inhibition (GI)” value [4] of the same compound?
Answer: inactive

Question: And the MIC [8]?
Answer: 0.78 µg/mL (≈ 1.29 µM)

Question: And the MIC [9]?
Answer: 6.25 µg/mL (≈ 10.3 µM)

Question: What about the LC50 at 24 h [11] of the same compound?
Answer: > 200 µM

Question: And the “growth inhibition (GI)” value (Rhodotorula glutinis)?
Answer: inactive

Question: What about the MIC (Aspergillus parasiticus [10]) of the same compound?
Answer: 6.25 µg/mL (≈ 10.3 µM)

Question: Which “growth inhibition (GI)” value [4] does the source give for CCCCCCC(C)C/C(C)=C\C(/C=C(C)/C=C/C(OC(C)=O)C(C)(C)c1cc(OC(C)=O)c([C@@H]2O[C@H](COC(C)=O)C[C@H](OC(C)=O)[C@H]2OC(C)=O)c(=O)o1)COC(C)=O (stereo partly specified) here?
Answer: inactive

Question: What about the LC50 at 24 h [11] of the same compound?
Answer: 85.6 µM

Question: What about the “growth inhibition (GI)” value (Rhodotorula glutinis) of the same compound?
Answer: inactive

Question: With CCCCCCC(C)C/C(C)=C\C(C)/C=C(C)/C=C/C(O)C(C)(C)c1cc(O)c([C@@H]2O[C@H](CO)C[C@H](O)[C@H]2O)c(=O)o1 (stereo partly specified) [DEOXYNEOFUSAPYRONE] as the compound, how does the MIC (Botrytis cinerea [1]) read?
Answer: 1.56 µg/mL (≈ 2.64 µM)

Question: What about the MIC (Botrytis cinerea [2]) of the same compound?
Answer: 1.56 µg/mL (≈ 2.64 µM)

Question: What about the MIC [5] of the same compound?
Answer: 1.56 µg/mL (≈ 2.64 µM)

Question: And the MIC (Botrytis cinerea [3])?
Answer: 0.78 µg/mL (≈ 1.32 µM)

Question: And the MIC (Aspergillus parasiticus [6])?
Answer: 0.78 µg/mL (≈ 1.32 µM)

Question: And the MIC (Aspergillus parasiticus [7])?
Answer: 0.78 µg/mL (≈ 1.32 µM)

Question: What about the “growth inhibition (GI)” value [4] of the same compound?
Answer: inactive

Question: What about the MIC [8] of the same compound?
Answer: 0.78 µg/mL (≈ 1.32 µM)

Question: And the MIC [9]?
Answer: 1.56 µg/mL (≈ 2.64 µM)

Question: What about the LC50 at 24 h [11] of the same compound?
Answer: 37.1 µM

Question: And the “growth inhibition (GI)” value (Rhodotorula glutinis)?
Answer: inactive

Question: And the MIC (Aspergillus parasiticus [10])?
Answer: 0.78 µg/mL (≈ 1.32 µM)

Question: For CCCCCCC(C)C/C(C)=C\C(/C=C(C)/C=C/C(OC(C)=O)C(C)(C)c1cc(=O)c([C@@H]2O[C@H](COC(C)=O)C[C@H](OC(C)=O)[C@H]2OC(C)=O)c(OC)o1)COC(C)=O (stereo partly specified), which “growth inhibition (GI)” value [4] is on record?
Answer: inactive

Question: What about the LC50 at 24 h [11] of the same compound?
Answer: 51.9 µM

Question: What about the “growth inhibition (GI)” value (Rhodotorula glutinis) of the same compound?
Answer: inactive

Question: Which results are given for CCCCCCC(C)C/C(C)=C\C(/C=C(C)/C=C/C(OC(C)=O)C(C)(C)c1cc(OC)c([C@@H]2O[C@H](COC(C)=O)C[C@H](OC(C)=O)[C@H]2OC(C)=O)c(=O)o1)COC(C)=O (stereo partly specified)?
Answer: growth inhibition (GI) [4]: inactive; LC50 at 24 h [11]: 46.1 µM; growth inhibition (GI) (Rhodotorula glutinis): inactive

Question: Which “growth inhibition (GI)” value [4] does the source give for CCCCCCC(C)C/C(C)=C\C(C)/C=C(C)/C=C/C(OC(C)=O)C(C)(C)c1cc(OC(C)=O)c([C@@H]2O[C@H](COC(C)=O)C[C@H](OC(C)=O)[C@H]2OC(C)=O)c(=O)o1 (stereo partly specified) here?
Answer: inactive

Question: What about the LC50 at 24 h [11] of the same compound?
Answer: 39.7 µM

Question: What about the “growth inhibition (GI)” value (Rhodotorula glutinis) of the same compound?
Answer: inactive

Question: Which results are given for CCCCCCC(C)CC(C)CC(CO)CC(C)CCC(O)C(C)(C)c1cc(O)c([C@@H]2O[C@H](CO)C[C@H](O)[C@H]2O)c(=O)o1 (stereo partly specified)?
Answer: MIC (Botrytis cinerea [1]): 50 µg/mL (≈ 81.6 µM); MIC (Botrytis cinerea [2]): 50 µg/mL (≈ 81.6 µM); MIC (Botrytis cinerea [3]): 50 µg/mL (≈ 81.6 µM); growth inhibition (GI) [4]: inactive; growth inhibition (GI) (Rhodotorula glutinis): inactive

Question: Which MIC (Botrytis cinerea [1]) does the source give for CCCCCCC(C)C/C(C)=C\C(/C=C(C)/C=C/C(O)C(C)(C)c1cc(OC)c([C@@H]2O[C@H](CO)C[C@H](O)[C@H]2O)c(=O)o1)CO (stereo partly specified) here?
Answer: 50 µg/mL (≈ 80.5 µM)

Question: And the MIC (Botrytis cinerea [2])?
Answer: 50 µg/mL (≈ 80.5 µM)

Question: And the MIC (Botrytis cinerea [3])?
Answer: 25 µg/mL (≈ 40.3 µM)

Question: What about the “growth inhibition (GI)” value [4] of the same compound?
Answer: inactive

Question: What about the “growth inhibition (GI)” value (Rhodotorula glutinis) of the same compound?
Answer: inactive
